Experimental data reported in the NIST ThermoML archive (doi:10.1016/j.jct.2003.12.012).

Assays:
[1] = Molar enthalpy of transition or fusion; details: Crystal; Adiabatic calorimetry
[2] = molar heat capacity at saturation pressure
[3] = for mass density / vapor or sublimation pressure: Liquid; for mass density: Vibrating tube method

c1ccc2c3c(sc2c1)CCCC3 [1,2,3,4-tetrahydrodibenzothiophene]
Details | Molar enthalpy of transition or fusion [kJ/mol]
[1] | 14.01

molar heat capacity [J/K/mol], [2]
Details | Crystal | Liquid
4.929 K, Vacuum adiabatic calorimetry | 0.32 | –
5 K, Vacuum adiabatic calorimetry | 0.33 | –
5.867 K, Vacuum adiabatic calorimetry | 0.56 | –
6.798 K, Vacuum adiabatic calorimetry | 0.931 | –
7.734 K, Vacuum adiabatic calorimetry | 1.41 | –
8.759 K, Vacuum adiabatic calorimetry | 2.08 | –
9.819 K, Vacuum adiabatic calorimetry | 2.94 | –
10 K, Vacuum adiabatic calorimetry | 3.08 | –
10.94 K, Vacuum adiabatic calorimetry | 3.96 | –
12.2 K, Vacuum adiabatic calorimetry | 5.23 | –
13.6 K, Vacuum adiabatic calorimetry | 6.8 | –
15.14 K, Vacuum adiabatic calorimetry | 8.647 | –
16.83 K, Vacuum adiabatic calorimetry | 10.74 | –
18.67 K, Vacuum adiabatic calorimetry | 13.06 | –
20 K, Vacuum adiabatic calorimetry | 14.74 | –
20.68 K, Vacuum adiabatic calorimetry | 15.6 | –
22.91 K, Vacuum adiabatic calorimetry | 18.38 | –
25.4 K, Vacuum adiabatic calorimetry | 21.41 | –
28.17 K, Vacuum adiabatic calorimetry | 24.67 | –
30 K, Vacuum adiabatic calorimetry | 26.76 | –
31.26 K, Vacuum adiabatic calorimetry | 28.16 | –
34.71 K, Vacuum adiabatic calorimetry | 31.86 | –
38.53 K, Vacuum adiabatic calorimetry | 35.74 | –
40 K, Vacuum adiabatic calorimetry | 37.17 | –
42.79 K, Vacuum adiabatic calorimetry | 39.83 | –
47.54 K, Vacuum adiabatic calorimetry | 44.15 | –
50 K, Vacuum adiabatic calorimetry | 46.29 | –
52.85 K, Vacuum adiabatic calorimetry | 48.69 | –
58.73 K, Vacuum adiabatic calorimetry | 53.4 | –
59.8 K, Vacuum adiabatic calorimetry | 54.26 | –
60 K, Vacuum adiabatic calorimetry | 54.39 | –
65.16 K, Vacuum adiabatic calorimetry | 58.28 | –
65.33 K, Vacuum adiabatic calorimetry | 58.42 | –
70 K, Vacuum adiabatic calorimetry | 61.88 | –
71.56 K, Vacuum adiabatic calorimetry | 63.02 | –
78.46 K, Vacuum adiabatic calorimetry | 67.87 | –
80 K, Vacuum adiabatic calorimetry | 68.94 | –
85.75 K, Vacuum adiabatic calorimetry | 72.84 | –
90 K, Vacuum adiabatic calorimetry | 75.67 | –
90.98 K, Vacuum adiabatic calorimetry | 76.33 | –
93.89 K, Vacuum adiabatic calorimetry | 78.25 | –
99.3 K, Vacuum adiabatic calorimetry | 81.84 | –
100 K, Vacuum adiabatic calorimetry | 82.3 | –
108.29 K, Vacuum adiabatic calorimetry | 87.72 | –
117.93 K, Vacuum adiabatic calorimetry | 93.99 | –
120 K, Vacuum adiabatic calorimetry | 95.28 | –
127.8 K, Vacuum adiabatic calorimetry | 100.49 | –
138.76 K, Vacuum adiabatic calorimetry | 107.84 | –
140 K, Vacuum adiabatic calorimetry | 108.6 | –
150.73 K, Vacuum adiabatic calorimetry | 116.11 | –
160 K, Vacuum adiabatic calorimetry | 122.46 | –
162.76 K, Vacuum adiabatic calorimetry | 124.52 | –
174.79 K, Vacuum adiabatic calorimetry | 133.17 | –
180 K, Vacuum adiabatic calorimetry | 136.76 | –
186.82 K, Vacuum adiabatic calorimetry | 141.95 | –
198.84 K, Vacuum adiabatic calorimetry | 151.12 | –
199.7 K, Vacuum adiabatic calorimetry | 151.8 | –
200 K, Vacuum adiabatic calorimetry | 151.75 | –
210.84 K, Vacuum adiabatic calorimetry | 160.54 | –
212.28 K, Vacuum adiabatic calorimetry | 161.67 | –
220 K, Vacuum adiabatic calorimetry | 167.35 | –
222.84 K, Vacuum adiabatic calorimetry | 170.12 | –
225.76 K, Vacuum adiabatic calorimetry | 172.63 | –
232.14 K, Vacuum adiabatic calorimetry | 177.99 | –
234.83 K, Vacuum adiabatic calorimetry | 180.25 | –
238.71 K, Vacuum adiabatic calorimetry | 183.61 | –
240 K, Vacuum adiabatic calorimetry | 183.48 | –
247.47 K, Vacuum adiabatic calorimetry | 192.11 | –
249.42 K, Vacuum adiabatic calorimetry | 193.97 | –
251.32 K, Vacuum adiabatic calorimetry | 196.13 | –
260 K, Vacuum adiabatic calorimetry | 200.99 | –
262.17 K, Vacuum adiabatic calorimetry | 216.81 | –
263.64 K, Vacuum adiabatic calorimetry | 221.51 | –
263.71 K, Vacuum adiabatic calorimetry | 222.9 | –
275.03 K, Vacuum adiabatic calorimetry | 216.13 | 256.66
280 K, Vacuum adiabatic calorimetry | – | 259.07
282.32 K, Vacuum adiabatic calorimetry | – | 260.24
283.78 K, Vacuum adiabatic calorimetry | – | 260.98
287.63 K, Vacuum adiabatic calorimetry | – | 262.81
291.46 K, Vacuum adiabatic calorimetry | – | 264.72
298.15 K, Vacuum adiabatic calorimetry | – | 268.09
300 K, Vacuum adiabatic calorimetry | – | 269.02
300.54 K, Vacuum adiabatic calorimetry | – | 269.29
301.1 K, Vacuum adiabatic calorimetry | – | 269.61
315.41 K, Vacuum adiabatic calorimetry | – | 277.04
320 K, Vacuum adiabatic calorimetry | – | 279.47
330.79 K, Vacuum adiabatic calorimetry | – | 285.2
340 K, Vacuum adiabatic calorimetry | – | 290.16
343.22 K, Vacuum adiabatic calorimetry | – | 291.9
359.69 K, Vacuum adiabatic calorimetry | – | 300.83
360 K, Vacuum adiabatic calorimetry | – | 301
376.04 K, Vacuum adiabatic calorimetry | – | 309.7
380 K, Vacuum adiabatic calorimetry | – | 311.85
392 K, Vacuum adiabatic calorimetry | – | 318.35
400 K, Vacuum adiabatic calorimetry | – | 322.67
408.31 K, Vacuum adiabatic calorimetry | – | 327.12
420 K, Vacuum adiabatic calorimetry | – | 333.33
424.94 K, Vacuum adiabatic calorimetry | – | 335.95
437.47 K, Vacuum adiabatic calorimetry | – | 342.54
440 K, Small sample (50 mg) DSC | – | 344.04
460 K, Small sample (50 mg) DSC | – | 355.38
480 K, Small sample (50 mg) DSC | – | 366.09
500 K, Small sample (50 mg) DSC | – | 376.9
520 K, Small sample (50 mg) DSC | – | 387.66
540 K, Small sample (50 mg) DSC | – | 398.39
560 K, Small sample (50 mg) DSC | – | 409.11
580 K, Small sample (50 mg) DSC | – | 419.8
600 K, Small sample (50 mg) DSC | – | 430.43

[3]
Details | mass density [kg/m3]
323.14 K | 1125.7
348.13 K | 1105.2
373.12 K | 1086
423.11 K | 1046.8
448.11 K | 1028.1

[3]
Details | Triple point temperature [K] | vapor or sublimation pressure [kPa]
359.98 K, Inclined piston gauge | – | 0.0221
369.98 K, Inclined piston gauge | – | 0.0414
379.97 K, Inclined piston gauge | – | 0.0746
389.97 K, Inclined piston gauge | – | 0.1296
400.17 K, Inclined piston gauge | – | 0.2209
409.96 K, Inclined piston gauge | – | 0.3567
419.97 K, Inclined piston gauge | – | 0.5674
429.96 K, Inclined piston gauge | – | 0.8785
439.96 K, Inclined piston gauge | – | 1.328
449.96 K, Inclined piston gauge | – | 1.962
450.48 K, Ebulliometric method (Recirculating still) | – | 2.002
454.96 K, Inclined piston gauge | – | 2.368
459.96 K, Inclined piston gauge | – | 2.842
469.6 K, Ebulliometric method (Recirculating still) | – | 3.993
478.25 K, Ebulliometric method (Recirculating still) | – | 5.331
491.02 K, Ebulliometric method (Recirculating still) | – | 8
500.6 K, Ebulliometric method (Recirculating still) | – | 10.67
508.29 K, Ebulliometric method (Recirculating still) | – | 13.32
516.36 K, Ebulliometric method (Recirculating still) | – | 16.66
523.05 K, Ebulliometric method (Recirculating still) | – | 19.94
531.82 K, Ebulliometric method (Recirculating still) | – | 25.02
540.67 K, Ebulliometric method (Recirculating still) | – | 31.18
549.55 K, Ebulliometric method (Recirculating still) | – | 38.56
558.49 K, Ebulliometric method (Recirculating still) | – | 47.38
567.47 K, Ebulliometric method (Recirculating still) | – | 57.8
576.48 K, Ebulliometric method (Recirculating still) | – | 70.09
585.54 K, Ebulliometric method (Recirculating still) | – | 84.5
594.67 K, Ebulliometric method (Recirculating still) | – | 101.29
603.84 K, Ebulliometric method (Recirculating still) | – | 120.72
Crystal, Adiabatic calorimetry | 275.03 | –
